One assay addresses T1, Kir6.1/SUR2B (Homo sapiens, UniProt O60706+Q15842).
T1 construct: gene KCNJ8; full-length human subunits co-expressed stably in HEK293 cells; GenScript vectors; four Kir6.1 plus four SUR2B
Briefly: thallium-flux fluorescence assay (FLIPR, BTC/AM). The assay is classed as cell-based. An excerpt:
thallium-flux fluorescence assay (FLIPR, BTC/AM) on Kir6.1/SUR2B

A further assay deals with T2, Kir6.2/SUR2A (Homo sapiens, UniProt O60706+Q14654).
T2 construct: gene KCNJ11; full-length human subunits co-expressed stably in HEK293 cells; GenScript vectors; four Kir6.2 plus four SUR2A
Kind of assay: thallium-flux fluorescence assay (FLIPR, BTC/AM). The assay is classed as cell-based. An excerpt: (§1) thallium-flux fluorescence assay (FLIPR, BTC/AM) on Kir6.2/SUR2A

The target of another assay is T3, Kir6.2/SUR1 (Homo sapiens, UniProt Q09428+Q14654).
T3 construct: gene KCNJ11; full-length human subunits co-expressed stably in HEK293 cells; GenScript vectors; four Kir6.2 plus four SUR1
Briefly: thallium-flux fluorescence assay (FLIPR, BTC/AM). The assay is classed as cell-based. The source says: thallium-flux fluorescence assay (FLIPR, BTC/AM) on Kir6.2/SUR1

Assay [1] in a line: thallium-flux fluorescence assay (FLIPR, BTC/AM). Particulars: read-out: Kir6.1/SUR2B / EC50. The assay is classed as cell-based, Homo sapiens.
Excerpt: as §1

The nature of assay [2]: thallium-flux fluorescence assay (FLIPR, BTC/AM). In kind it is cell-based, Homo sapiens. The settings on record: read-out: Kir6.2/SUR1 / IC50.

The structures appear in SMILES notation.

T1 sequence (Q15842 whole entry): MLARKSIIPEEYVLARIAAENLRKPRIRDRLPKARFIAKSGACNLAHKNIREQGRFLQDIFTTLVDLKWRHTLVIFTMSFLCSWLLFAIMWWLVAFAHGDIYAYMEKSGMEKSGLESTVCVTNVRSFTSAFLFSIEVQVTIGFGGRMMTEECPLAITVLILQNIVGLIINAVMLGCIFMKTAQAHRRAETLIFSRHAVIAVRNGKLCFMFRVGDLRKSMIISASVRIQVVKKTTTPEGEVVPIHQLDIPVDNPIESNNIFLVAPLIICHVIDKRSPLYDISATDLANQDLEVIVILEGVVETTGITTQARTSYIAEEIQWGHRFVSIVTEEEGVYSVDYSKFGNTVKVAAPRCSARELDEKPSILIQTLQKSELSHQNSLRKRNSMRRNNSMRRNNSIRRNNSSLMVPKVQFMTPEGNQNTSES
T1 sequence (O60706 1-1549 isoform O60706-2): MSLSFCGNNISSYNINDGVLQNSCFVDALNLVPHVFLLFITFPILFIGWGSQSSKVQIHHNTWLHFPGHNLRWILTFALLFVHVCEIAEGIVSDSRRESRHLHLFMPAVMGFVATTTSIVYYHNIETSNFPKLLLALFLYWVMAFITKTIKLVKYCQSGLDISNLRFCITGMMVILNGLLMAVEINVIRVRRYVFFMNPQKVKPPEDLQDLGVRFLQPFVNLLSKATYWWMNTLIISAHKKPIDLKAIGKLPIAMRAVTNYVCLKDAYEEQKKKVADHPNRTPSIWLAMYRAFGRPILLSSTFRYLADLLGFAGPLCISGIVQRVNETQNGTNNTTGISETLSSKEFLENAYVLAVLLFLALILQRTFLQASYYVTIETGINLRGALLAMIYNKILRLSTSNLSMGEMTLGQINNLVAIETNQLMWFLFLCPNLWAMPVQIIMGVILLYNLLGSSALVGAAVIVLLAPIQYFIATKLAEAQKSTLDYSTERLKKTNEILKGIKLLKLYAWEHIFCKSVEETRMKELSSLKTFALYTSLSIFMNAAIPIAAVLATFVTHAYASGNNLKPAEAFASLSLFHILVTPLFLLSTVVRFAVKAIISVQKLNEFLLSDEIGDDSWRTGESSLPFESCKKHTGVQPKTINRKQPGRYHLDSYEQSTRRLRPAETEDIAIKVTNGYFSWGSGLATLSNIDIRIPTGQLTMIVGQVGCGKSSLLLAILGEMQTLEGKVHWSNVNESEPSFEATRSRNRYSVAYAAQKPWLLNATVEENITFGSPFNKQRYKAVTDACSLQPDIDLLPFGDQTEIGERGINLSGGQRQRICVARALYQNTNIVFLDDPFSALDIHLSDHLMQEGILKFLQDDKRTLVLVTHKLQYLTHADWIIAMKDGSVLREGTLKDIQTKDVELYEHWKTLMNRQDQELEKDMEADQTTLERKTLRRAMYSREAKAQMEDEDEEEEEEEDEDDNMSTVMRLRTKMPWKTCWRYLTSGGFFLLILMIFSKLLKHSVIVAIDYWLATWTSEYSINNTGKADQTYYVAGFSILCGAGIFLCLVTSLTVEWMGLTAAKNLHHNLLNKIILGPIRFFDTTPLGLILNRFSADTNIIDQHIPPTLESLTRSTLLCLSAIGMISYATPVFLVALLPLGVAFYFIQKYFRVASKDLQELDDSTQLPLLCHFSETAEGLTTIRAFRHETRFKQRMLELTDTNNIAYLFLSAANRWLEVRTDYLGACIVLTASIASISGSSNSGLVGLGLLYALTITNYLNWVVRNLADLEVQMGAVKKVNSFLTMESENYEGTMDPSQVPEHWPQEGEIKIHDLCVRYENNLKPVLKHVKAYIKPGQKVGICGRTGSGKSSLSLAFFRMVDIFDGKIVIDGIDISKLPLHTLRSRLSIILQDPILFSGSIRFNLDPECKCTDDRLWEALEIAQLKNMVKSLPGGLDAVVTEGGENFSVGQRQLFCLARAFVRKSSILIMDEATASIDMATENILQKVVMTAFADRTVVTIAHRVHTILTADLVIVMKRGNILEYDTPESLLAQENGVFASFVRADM
T3 sequence (Q14654 whole entry): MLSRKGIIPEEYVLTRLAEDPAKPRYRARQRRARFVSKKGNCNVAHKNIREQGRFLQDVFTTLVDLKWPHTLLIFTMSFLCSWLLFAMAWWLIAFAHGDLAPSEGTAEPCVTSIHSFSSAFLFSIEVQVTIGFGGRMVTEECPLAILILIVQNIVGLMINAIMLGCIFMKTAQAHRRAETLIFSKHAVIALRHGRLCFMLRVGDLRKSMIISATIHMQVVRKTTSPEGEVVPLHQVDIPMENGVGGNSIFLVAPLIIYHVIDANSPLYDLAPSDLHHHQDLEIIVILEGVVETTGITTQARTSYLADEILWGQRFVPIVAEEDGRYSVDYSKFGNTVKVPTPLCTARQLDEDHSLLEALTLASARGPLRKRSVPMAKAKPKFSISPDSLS
T3 sequence (Q09428 whole entry): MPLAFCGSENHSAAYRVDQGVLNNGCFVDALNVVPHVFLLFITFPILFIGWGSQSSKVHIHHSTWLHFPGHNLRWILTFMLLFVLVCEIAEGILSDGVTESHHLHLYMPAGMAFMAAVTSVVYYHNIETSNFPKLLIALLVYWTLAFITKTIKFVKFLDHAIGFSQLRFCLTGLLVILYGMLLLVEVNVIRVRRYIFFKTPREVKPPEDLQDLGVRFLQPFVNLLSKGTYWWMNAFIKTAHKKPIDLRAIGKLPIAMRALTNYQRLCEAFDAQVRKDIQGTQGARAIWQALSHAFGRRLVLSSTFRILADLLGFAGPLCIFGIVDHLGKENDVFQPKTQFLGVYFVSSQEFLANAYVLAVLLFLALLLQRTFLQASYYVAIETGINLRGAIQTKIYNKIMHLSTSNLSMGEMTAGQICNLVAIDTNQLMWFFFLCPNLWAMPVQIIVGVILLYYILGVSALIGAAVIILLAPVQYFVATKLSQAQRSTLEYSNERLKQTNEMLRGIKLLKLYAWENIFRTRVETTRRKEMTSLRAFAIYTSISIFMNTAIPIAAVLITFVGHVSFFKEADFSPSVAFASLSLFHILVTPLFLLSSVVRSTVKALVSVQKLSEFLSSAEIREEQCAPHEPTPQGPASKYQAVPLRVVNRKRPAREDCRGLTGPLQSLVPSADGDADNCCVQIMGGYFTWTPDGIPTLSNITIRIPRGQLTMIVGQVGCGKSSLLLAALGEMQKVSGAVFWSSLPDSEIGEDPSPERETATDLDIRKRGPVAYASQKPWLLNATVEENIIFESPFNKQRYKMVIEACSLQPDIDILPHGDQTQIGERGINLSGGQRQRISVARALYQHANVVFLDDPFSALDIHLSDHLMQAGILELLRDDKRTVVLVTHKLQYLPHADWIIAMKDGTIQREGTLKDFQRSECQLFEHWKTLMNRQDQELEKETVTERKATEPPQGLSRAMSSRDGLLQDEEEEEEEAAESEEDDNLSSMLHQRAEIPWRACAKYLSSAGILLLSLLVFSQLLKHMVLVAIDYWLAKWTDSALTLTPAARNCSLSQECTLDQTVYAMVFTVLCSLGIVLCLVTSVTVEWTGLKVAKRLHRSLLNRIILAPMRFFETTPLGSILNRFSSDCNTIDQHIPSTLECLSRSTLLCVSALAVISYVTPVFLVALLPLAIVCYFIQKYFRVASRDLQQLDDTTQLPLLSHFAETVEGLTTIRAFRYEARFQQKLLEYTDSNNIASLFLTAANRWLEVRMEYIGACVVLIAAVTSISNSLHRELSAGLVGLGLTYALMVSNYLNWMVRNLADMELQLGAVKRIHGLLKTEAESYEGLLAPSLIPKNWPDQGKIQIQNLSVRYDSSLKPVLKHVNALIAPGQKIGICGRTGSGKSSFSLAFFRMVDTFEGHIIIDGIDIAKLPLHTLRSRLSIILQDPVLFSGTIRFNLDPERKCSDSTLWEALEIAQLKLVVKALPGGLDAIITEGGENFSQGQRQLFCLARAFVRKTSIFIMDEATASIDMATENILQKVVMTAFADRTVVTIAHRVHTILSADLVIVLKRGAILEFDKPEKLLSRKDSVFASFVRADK

Regarding `O=C1CCCC2=C1[C@H](c1ccc(F)c(Br)c1)C1=C(CCS1(=O)=O)N2` [A-278637], the EC50 on Kir6.1/SUR2B was 170 ± 89 nM; at Kir6.2/SUR2A it was 1600 ± 890 nM; on Kir6.2/SUR1 it was over 30000 nM.

For `CC1(C)Oc2ccc(C#N)cc2[C@H](N(Cc2ncc[nH]2)c2ccc(Cl)cc2)[C@H]1O` [BMS-191095], the EC50 (at Kir6.1/SUR2B; in assay [1]) was over 30000 nM each time.

Take `CC1=NS(=O)(=O)c2cc(Cl)ccc2N1` [Diazoxide]: the EC50 is 9700 ± 5700 nM on Kir6.1/SUR2B and over 100000 nM at Kir6.2/SUR2A.

With `COc1ccc(Cl)cc1C(=O)NCCc1ccc(S(=O)(=O)NC(=O)NC2CCCCC2)cc1` [Glibenclamide], the IC50 was 21 ± 14 nM on Kir6.1/SUR2B and 9.9 ± 4.1 nM on Kir6.2/SUR2A.

Turning to `Cc1ccc(S(=O)(=O)NC(=O)NN2CC3CCCC3C2)cc1` (centres unmarked) [Gliclazide], the figures for the IC50 against Kir6.1/SUR2B, against Kir6.2/SUR2A and against Kir6.2/SUR1 were 24000 ± 11000 nM, 55000 ± 22000 nM and 610 ± 450 nM, respectively.

Turning to `CCC1=C(C)CN(C(=O)NCCc2ccc(S(=O)(=O)NC(=O)N[C@H]3CC[C@H](C)CC3)cc2)C1=O` [Glimepiride], the IC50 at Kir6.1/SUR2B came to 33 ± 23 nM; against Kir6.2/SUR2A, 17 ± 9 nM; against Kir6.2/SUR1, 2.3 ± 1.2 nM.

Consider `COc1ccc2c(c1)C(=O)N(CCc1ccc(S(=O)(=O)NC(=O)NC3CCCCC3)cc1)C(=O)C2(C)C` [Gliquidone], for which the IC50 amounted to 4500 ± 3600 nM at Kir6.1/SUR2B, 780 ± 580 nM on Kir6.2/SUR2A and 6.9 ± 5 nM against Kir6.2/SUR1.

For `CC1(NC2=NS(=O)(=O)c3sc(Cl)cc3N2)CC1` [NN414], the EC50 on Kir6.1/SUR2B was over 30000 nM.

`CC(C)[C@H]1CC[C@H](C(=O)N[C@H](Cc2ccccc2)C(=O)O)CC1` [Nateglinide]: the IC50 against Kir6.1/SUR2B was 14000 ± 6700 nM; against Kir6.2/SUR2A it was 16000 ± 7300 nM; at Kir6.2/SUR1 it was 44 ± 13 nM.

On to `CCC(C)(C)NC(=NC#N)Nc1cccnc1` [P1075], for which the EC50 at Kir6.1/SUR2B was 52 ± 24 nM; at Kir6.2/SUR2A it was 510 ± 270 nM; at Kir6.2/SUR1, over 30000 nM.

With `C1CCC(/N=C(\NC23CC4CC(CC(C4)C2)C3)N2CCOCC2)CC1` [PNU-37883A], the IC50 against Kir6.1/SUR2B is 290 ± 210 nM; in assay [2] it was over 100000 nM; against Kir6.2/SUR1, over 100000 nM.

In the case of `CC(N/C(=N\C#N)Nc1ccncc1)C(C)(C)C` (centres unmarked) [Pinacidil], the EC50 at Kir6.2/SUR1 is over 30000 nM.

Regarding `CCOc1cc(CC(=O)N[C@@H](CC(C)C)c2ccccc2N2CCCCC2)ccc1C(=O)O` [Repaglinide], the IC50 turned out to be 1.1 ± 0.6 nM on Kir6.1/SUR2B, 0.94 ± 0.46 nM at Kir6.2/SUR2A and 3.9 ± 1.4 nM against Kir6.2/SUR1.

On to `CN(CCOc1ccc(CC2SC(=O)NC2=O)cc1)c1ccccn1` (centres unmarked) [Rosiglitazone], for which the IC50 on Kir6.1/SUR2B was 8500 ± 4600 nM; in assay [2], over 100000 nM; against Kir6.2/SUR1, over 100000 nM.

Turning to `CCCCNC(=O)NS(=O)(=O)c1ccc(C)cc1` [Tolbutamide], the IC50 came out at 41000 ± 11000 nM against Kir6.1/SUR2B, 71000 ± 12000 nM at Kir6.2/SUR2A and 7500 ± 4100 nM against Kir6.2/SUR1.

As to `Cc1c(C)c2c(c(C)c1O)CCC(C)(COc1ccc(CC3SC(=O)NC3=O)cc1)O2` (centres unmarked) [Troglitazone], the IC50 was determined as 10000 ± 6500 nM on Kir6.1/SUR2B, 30000 ± 16000 nM at Kir6.2/SUR2A and 14000 ± 3100 nM against Kir6.2/SUR1.

Regarding `CC(=O)N(O)[C@@H]1c2cc(C#N)ccc2OC(C)(C)[C@H]1O` [Y-26763], the EC50 at Kir6.1/SUR2B amounted to 75 ± 42 nM; on Kir6.2/SUR2A, 1300 ± 970 nM; on Kir6.2/SUR1 it was 4100 ± 2100 nM.

With `CC(O)(C(=O)Nc1ccc(S(=O)(=O)c2ccccc2)cc1)C(F)(F)F` (centres unmarked) [ZM226600], the figures for the EC50 at Kir6.1/SUR2B, at Kir6.2/SUR2A and at Kir6.2/SUR1 were 150 ± 90 nM, 2800 ± 2200 nM and over 30000 nM, respectively.
